Laboratory results published in ChEMBL document CHEMBL1141939, “Structure-activity relationship studies on a series of cyclohexylpiperazines bearing a phanylacetamide as ligands of the human melanocortin-4 receptor” (Bioorg Med Chem Lett, 2005).

How the values were obtained:
Melanocortin receptor 4 [1] = target: T1, Melanocortin receptor 4 (Homo sapiens, UniProt P32245); assay: biochemical; assay type: cell-based, HEK293
Description: Displacement of [125I]NDP-MSH from human MC4R expressed in HEK293 cells

Melanocortin receptor 4 [2] = target: T1, Melanocortin receptor 4; assay: cAMP stimulation in HEK293 cells transfected with human MC4R; assay type: functional, cell-based

T1 sequence (P32245 whole entry): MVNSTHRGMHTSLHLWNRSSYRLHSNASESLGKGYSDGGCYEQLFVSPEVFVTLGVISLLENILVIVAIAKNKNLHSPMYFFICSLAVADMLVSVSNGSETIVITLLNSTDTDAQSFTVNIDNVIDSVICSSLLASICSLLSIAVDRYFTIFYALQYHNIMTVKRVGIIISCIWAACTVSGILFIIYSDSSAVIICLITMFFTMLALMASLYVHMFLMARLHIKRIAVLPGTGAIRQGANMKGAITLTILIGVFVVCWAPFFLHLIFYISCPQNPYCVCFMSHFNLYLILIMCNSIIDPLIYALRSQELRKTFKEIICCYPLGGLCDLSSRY

SMILES	Ki (Melanocortin receptor 4 [1]) [nM]	EC50 (Melanocortin receptor 4 [2]) [nM]	Emax (Melanocortin receptor 4 [2]) [%]
CCCCC(=O)N[C@H](Cc1ccc(Cl)cc1)C(=O)N1CCN(C2(CNC(=O)Cc3ccccc3)CCCCC2)CC1	150		
CCCC(=O)N[C@H](Cc1ccc(Cl)cc1)C(=O)N1CCN(C2(CNC(=O)Cc3ccccc3)CCCCC2)CC1	210		
O=C(Cc1ccccc1)NCC1(N2CCN(C(=O)[C@@H](Cc3ccc(Cl)cc3)NC(=O)[C@H]3Cc4ccccc4CN3)CC2)CCCCC1	16	33	96
CN(C)CC(=O)N[C@H](Cc1ccc(Cl)cc1)C(=O)N1CCN(C2(CNC(=O)Cc3ccccc3)CCCCC2)CC1	100	300	63
NC1(C(=O)N[C@H](Cc2ccc(Cl)cc2)C(=O)N2CCN(C3(CNC(=O)Cc4ccccc4)CCCCC3)CC2)Cc2ccccc2C1	140	280	49
CCC(=O)N[C@H](Cc1ccc(Cl)cc1)C(=O)N1CCN(C2(CNC(=O)Cc3ccccc3)CCCCC2)CC1	160		
O=C(Cc1ccccc1)NCC1(N2CCN(C(=O)[C@@H](Cc3ccc(Cl)cc3)NC(=O)c3ccco3)CC2)CCCCC1	100		
COCC(=O)N[C@H](Cc1ccc(Cl)cc1)C(=O)N1CCN(C2(CNC(=O)Cc3ccccc3)CCCCC2)CC1	170		
O=C(Cc1ccccc1)NCC1(N2CCN(C(=O)[C@@H](Cc3ccc(Cl)cc3)NC(=O)C3CCCC3)CC2)CCCCC1	230		
O=C(Cc1ccccc1)NCC1(N2CCN(C(=O)[C@@H](Cc3ccc(Cl)cc3)NC(=O)CC3Cc4ccccc4CN3)CC2)CCCCC1 (stereo partly specified)	16	37	96
CC(C)CC(=O)N[C@H](Cc1ccc(Cl)cc1)C(=O)N1CCN(C2(CNC(=O)Cc3ccccc3)CCCCC2)CC1	270		
CC(C)C(=O)N[C@H](Cc1ccc(Cl)cc1)C(=O)N1CCN(C2(CNC(=O)Cc3ccccc3)CCCCC2)CC1	300		
CC(=O)N[C@H](Cc1ccc(Cl)cc1)C(=O)N1CCN(C2(CNC(=O)Cc3ccccc3)CCCCC2)CC1	110		
NC(Cc1ccncc1)C(=O)N[C@H](Cc1ccc(Cl)cc1)C(=O)N1CCN(C2(CNC(=O)Cc3ccccc3)CCCCC2)CC1 (stereo partly specified)	120	590	54
O=C(Cc1ccccc1)NCC1(N2CCN(C(=O)[C@@H](Cc3ccc(Cl)cc3)NC(=O)c3cnc4ccccc4c3)CC2)CCCCC1	61		
O=C(Cc1ccccc1)NCC1(N2CCN(C(=O)[C@@H](Cc3ccc(Cl)cc3)NC(=O)Cc3ccccc3F)CC2)CCCCC1	180		
CC(C)COC(=O)N[C@H](Cc1ccc(Cl)cc1)C(=O)N1CCN(C2(CNC(=O)Cc3ccccc3)CCCCC2)CC1	280		

SMILES	Ki (Melanocortin receptor 4 [1]) [nM]	EC50 (Melanocortin receptor 4 [2]) [nM]	Emax (Melanocortin receptor 4 [2]) [%]
NC1(C(=O)N[C@H](Cc2ccc(Cl)cc2)C(=O)N2CCN(C3(CNC(=O)Cc4ccccc4)CCCCC3)CC2)CCc2ccccc2C1 (stereo partly specified)	82	160	87
O=C(Cc1ccccc1)NCC1(N2CCN(C(=O)[C@@H](Cc3ccc(Cl)cc3)NC(=O)C3Cc4ccccc4N3)CC2)CCCCC1 (stereo partly specified)	210	360	22
O=C(Cc1ccccc1)NCC1(N2CCN(C(=O)[C@@H](Cc3ccc(Cl)cc3)NC(=O)[C@@H]3Cc4ccccc4CN3)CC2)CCCCC1	11	46	76
O=C(Cc1ccccc1)NCC1(N2CCN(C(=O)[C@@H](Cc3ccc(Cl)cc3)NC(=O)c3ccccc3)CC2)CCCCC1	84		
O=C(Cc1ccccc1)NCC1(N2CCN(C(=O)[C@@H](Cc3ccc(Cl)cc3)NC(=O)c3ccc(F)cc3)CC2)CCCCC1	97		
O=C(Cc1ccccc1)NCC1(N2CCN(C(=O)[C@@H](Cc3ccc(Cl)cc3)NC(=O)c3cccnc3)CC2)CCCCC1	60		
O=C(Cc1ccccc1)NCC1(N2CCN(C(=O)[C@@H](Cc3ccc(Cl)cc3)NC(=O)Cc3cccs3)CC2)CCCCC1	80		
O=C(Cc1ccccc1)NCC1(N2CCN(C(=O)[C@@H](Cc3ccc(Cl)cc3)NC(=O)C3CC3)CC2)CCCCC1	130		
NC(CC(=O)N[C@H](Cc1ccc(Cl)cc1)C(=O)N1CCN(C2(CNC(=O)Cc3ccccc3)CCCCC2)CC1)c1ccccc1 (stereo partly specified)	42	270	61
NC(Cc1ccccc1)C(=O)N[C@H](Cc1ccc(Cl)cc1)C(=O)N1CCN(C2(CNC(=O)Cc3ccccc3)CCCCC2)CC1 (stereo partly specified)	130	420	62
O=C(Cc1ccccc1)NCC1(N2CCN(C(=O)[C@@H](Cc3ccc(Cl)cc3)NC(=O)C3NCc4ccccc43)CC2)CCCCC1 (stereo partly specified)	99	440	43
O=C(Cc1ccccc1)NCC1(N2CCN(C(=O)[C@@H](Cc3ccc(Cl)cc3)NC(=O)C3CCC3)CC2)CCCCC1	140		
CC(C)(C)CC(=O)N[C@H](Cc1ccc(Cl)cc1)C(=O)N1CCN(C2(CNC(=O)Cc3ccccc3)CCCCC2)CC1	750	570	43
NC1(C(=O)N[C@H](Cc2ccc(Cl)cc2)C(=O)N2CCN(C3(CNC(=O)Cc4ccccc4)CCCCC3)CC2)CCc2ccccc21 (stereo partly specified)	260	810	51
NC(C(=O)N[C@H](Cc1ccc(Cl)cc1)C(=O)N1CCN(C2(CNC(=O)Cc3ccccc3)CCCCC2)CC1)c1ccccc1 (stereo partly specified)	79	530	26
CCC(CC)C(=O)N[C@H](Cc1ccc(Cl)cc1)C(=O)N1CCN(C2(CNC(=O)Cc3ccccc3)CCCCC2)CC1	1000		
